Data reported in patent US4269717A, “Boiler additives for oxygen scavenging” (priority 1980, dated 1981).

Test: Carbohydrazide low temperature hydrolysis (Table V)
Type: physicochemical
Parameters: Hydrazine By Hydrolysis: unit not given here
Details: for Hydrazine By Hydrolysis / Percent Hydrolysis / ppm Hydrazine: 1,000 ppm
Protocol: Low temperature hydrolysis studies of carbohydrazide were carried out using reagent grade carbohydrazide containing approximately 2.7±0.1% hydrazine as an impurity. A 1,000 ppm carbohydrazide solution and a 100 ppm hydrazine solution were prepared with deaerated, deionized water. Half of the carbohydrazide solution was adjusted to pH 10.2 with sodium hydroxide and the other half was left at its original pH of 6.9. The solutions were poured into Nessler tubes to overflowing and sealed with stoppers fitted with hypodermic needles to allow pressure release with minimum air contact. Four samples of both of the carbohydrazide solutions and two samples of the hydrazine control were stored at varying temperatures for varying periods of time, all as reported in Table V below.

[1] = pH 6.9, Room Temp. (77° F.), 2 days
[2] = pH 6.9, Room Temp. (77° F.), 4 days
[3] = pH 6.9, Room Temp. (77° F.), 6 days
[4] = pH 10.2, Room Temp. (77° F.), 2 days
[5] = pH 10.2, Room Temp. (77° F.), 4 days
[6] = pH 10.2, Room Temp. (77° F.), 6 days

With `NNC(=O)NN` [Carbohydrazide, N, N' diaminourea] the “Hydrolysis at 120° F.” value (120° F.) was “no hydrolysis occured”, the “Hydrolysis above the original free hydrazine level” value (180° F.) was 3% and the “Hydrazine By Hydrolysis” value (pH 6.9, 120° F., 2 days) was 0. For the same compound, the “Percent Hydrolysis” value (pH 6.9, 120° F., 2 days) was 2.7%, the “ppm Hydrazine” value (pH 6.9, 120° F., 2 days) was 18.9 ppm and the “Hydrazine By Hydrolysis” value (pH 6.9, 120° F., 4 days) was 0. For the same compound, the “Percent Hydrolysis” value (pH 6.9, 120° F., 4 days) was 2.6%, the “ppm Hydrazine” value (pH 6.9, 120° F., 4 days) was 18.8 ppm and the “Hydrazine By Hydrolysis” value (pH 6.9, 120° F., 6 days) was 0. The “Percent Hydrolysis” value (pH 6.9, 120° F., 6 days) was 2.6%, the “ppm Hydrazine” value (pH 6.9, 120° F., 6 days) was 18.3 ppm and the “Hydrazine By Hydrolysis” value (pH 6.9, 180° F., 2 days) was 1.3. For the same compound, the “Percent Hydrolysis” value (pH 6.9, 180° F., 2 days) was 4.0%, the “ppm Hydrazine” value (pH 6.9, 180° F., 2 days) was 28.4 ppm and the “Hydrazine By Hydrolysis” value (pH 6.9, 180° F., 4 days) was 2.3. The “Percent Hydrolysis” value (pH 6.9, 180° F., 4 days) was 5.0%, the “ppm Hydrazine” value (pH 6.9, 180° F., 4 days) was 35.4 ppm and the “Hydrazine By Hydrolysis” value (pH 6.9, 180° F., 6 days) was 3.0. The “Percent Hydrolysis” value (pH 6.9, 180° F., 6 days) was 5.7%, the “ppm Hydrazine” value (pH 6.9, 180° F., 6 days) was 40.2 ppm and the “Hydrazine By Hydrolysis” value [1] was 0. The “Percent Hydrolysis” value [1] was 2.8%, the “ppm Hydrazine” value [1] was 19.7 ppm and the “Hydrazine By Hydrolysis” value [2] was 0. For the same compound, the “Percent Hydrolysis” value [2] was 2.7%, the “ppm Hydrazine” value [2] was 19.1 ppm and the “Hydrazine By Hydrolysis” value [3] was 0. For the same compound, the “Percent Hydrolysis” value [3] was 2.6%, the “ppm Hydrazine” value [3] was 18,7 ppm and the “Hydrazine By Hydrolysis” value (pH 6.9, time 0) was 0. For the same compound, the “Percent Hydrolysis” value (pH 6.9, time 0) was 2.7%, the “ppm Hydrazine” value (pH 6.9, time 0) was 19.0 ppm and the “Hydrazine By Hydrolysis” value (pH 10.2, 120° F., 2 days) was 0. For the same compound, the “Percent Hydrolysis” value (pH 10.2, 120° F., 2 days) was 2.8%, the “ppm Hydrazine” value (pH 10.2, 120° F., 2 days) was 20.0 ppm and the “Hydrazine By Hydrolysis” value (pH 10.2, 120° F., 4 days) was 0. The “Percent Hydrolysis” value (pH 10.2, 120° F., 4 days) was 2.8%, the “ppm Hydrazine” value (pH 10.2, 120° F., 4 days) was 19.8 ppm and the “Hydrazine By Hydrolysis” value (pH 10.2, 120° F., 6 days) was 0. For the same compound, the “Percent Hydrolysis” value (pH 10.2, 120° F., 6 days) was 2.7%, the “ppm Hydrazine” value (pH 10.2, 120° F., 6 days) was 19.3 ppm and the “Hydrazine By Hydrolysis” value (pH 10.2, 180° F., 2 days) was 1.4. For the same compound, the “Percent Hydrolysis” value (pH 10.2, 180° F., 2 days) was 4.1%, the “ppm Hydrazine” value (pH 10.2, 180° F., 2 days) was 29.0 ppm and the “Hydrazine By Hydrolysis” value (pH 10.2, 180° F., 4 days) was 2.1. For the same compound, the “Percent Hydrolysis” value (pH 10.2, 180° F., 4 days) was 4.8%, the “ppm Hydrazine” value (pH 10.2, 180° F., 4 days) was 34.2 ppm and the “Hydrazine By Hydrolysis” value (pH 10.2, 180° F., 6 days) was 2.7. For the same compound, the “Percent Hydrolysis” value (pH 10.2, 180° F., 6 days) was 5.4%, the “ppm Hydrazine” value (pH 10.2, 180° F., 6 days) was 38.6 ppm and the “Hydrazine By Hydrolysis” value [4] was 0. For the same compound, the “Percent Hydrolysis” value [4] was 2.8%, the “ppm Hydrazine” value [4] was 20.2 ppm and the “Hydrazine By Hydrolysis” value [5] was 0.1. For the same compound, the “Percent Hydrolysis” value [5] was 2.9%, the “ppm Hydrazine” value [5] was 20.5 ppm and the “Hydrazine By Hydrolysis” value [6] was 0. The “Percent Hydrolysis” value [6] was 2.8%, the “ppm Hydrazine” value [6] was 20.1 ppm and the “Hydrazine By Hydrolysis” value (pH 10.2, time 0) was 0. The “Percent Hydrolysis” value (pH 10.2, time 0) was 2.7%, the “ppm Hydrazine” value (pH 10.2, time 0) was 19.1 ppm and the “pH dependence of hydrolysis values” (pH range of 7-10) was “did not vary significantly”. For the same compound, the “Hydrolysis at room temperature” value (room temperature) was “no hydrolysis occured”.
